Data set [1] has as its system thyroid hormone receptor (THR). Nature of the data set: hTRE_HeLa THR transcriptional activity (nano luciferase reporter) assay with rat liver S9 mixtures. In kind it is cell-based, human. The following applies: hTRE_HeLa cells; for THR agonist classification (positive if >= 10% of activity of 100 nM T3): parent, inactive S9, phase I and phase I+II groups, before and after S9 reaction; for THR transcriptional activity after phase I+II reaction: phase I+II group. The procedure: The hTRE_HeLa cell line, obtained from the MFDS, was used to detect thyroid hormone receptor (THR) agonists through transcriptional activation analysis, utilizing a stably modified thyroid receptor-reactive human cervical cancer cell line along with one plasmid from a nano luciferase reporter. For cell line maintenance, minimum essential media (MEM, Gibco, USA) supplemented with 10% FBS, 1% penicillin/streptomycin (P/S), and 1 ml Hygromycin B (InvivoGen, USA) was used. The hTRE_Hela cell line was conditioned and treated in test medium containing Phenol red free of MEM (Gibco) supplemented with 10% charcoal-stripped FBS (CS-FBS), 1% P/S, and 1 mL Hygromycin B. hTRE_HeLa cells were maintained in 37°C and 5% CO2 incubator. hTRE_HeLa cells were seeded with 5 × 10^3 cells per well in the 96-well plate for 24 h and treated with EDCs and S9 mixtures for 48 h.
The S9 mixture for phase I metabolism was prepared with 0.1 mg/ml rat liver S9, 2 × 10^-3 M NADPH, 3 × 10^-2 M G-6-P, 5 × 10^-2 M MgCl2, and 3 units/ml G-6-PD. For phase I+II metabolism, 2 × 10^-2 M GSH, 5 × 10^-3 M UDPGA, and 2 × 10^-5 M PAPS were additionally included to the S9 mixture. […] The S9 mixtures were added to the aforementioned test medium to be diluted 10 times. After 24 h of seeding, hTRE_HeLa cells were treated with the S9 mixtures pre-incubated for 6 h and EDCs with different concentrations.
The vehicle control (VC) included only 0.145% of DMSO containing 9 × 10^-12 M 9-cis-Retinoic acid. The final volume for each well was 100 μl. […] After treatment, 10 μl of treated medium was transferred to a new plate, to which 40 μl of test medium and 50 μl of Nano-Glo luciferase reagent (Promega, USA) were added. After a 10 min incubation, the luciferase activity was measured using a luminescence reader (Glomax Discover, Promega). For data analysis, relative transcriptional activity (RTA) of PC was set to 100%, and RTA of VCcontrol was set to 0%. The % to PC value of EDCs was calculated to (EDCs – VCtest) / (PC – VCcontrol). The VCtest was set to the VC for each test group. If the EDC was greater than or equal to 10% of PC, the EDC was determined to be a THR agonist-positive chemical. The data were described by the mean ± standard deviation.

Data set [2] can be described thus: In vitro metabolic reaction using rat liver S9 fraction with LC-MS / GC-MS metabolic profiling. The following applies: for Metabollic rate: rat liver S9, phase I+II reaction vs inactivated S9 control, BDE28 and 4,4'-DIDBP by GC-MS, others by LC-MS; for Metabolic rate (parent decreased by) after the reaction: rat liver S9, phase I+II biotransformation.
The conditions of data set [3]: Sprague-Dawley, rat, pH 7.4.
The mark [4] stands for this setting: concentration not given, RTA with 100 nM T3 (PC) = 100%.

The results in this text go back to article PMC10619556, “Comprehensive Evaluation System for Post-Metabolic Activity of Potential Thyroid-Disrupting Chemicals” (Journal of Microbiology and Biotechnology, 2023).

Each structure is given as a SMILES string. Counter-ions that a name gives are not always drawn. Like-named read-outs stand apart in the source and are kept apart here. Bounds are passed on as bounds.

With `O=C(Nc1ccc(Oc2ccc(Cl)cc2)c(Cl)c1)c1cc(I)cc(I)c1O` [Rafoxanide, rafoxanide], the “THR agonist classification (positive if >= 10% of activity of 100 nM T3)” value in data set [1] is “THR agonistic negative”. The Metabollic rate in data set [2] is given as 51%.
Regarding `COc1c(O)cc2oc(-c3ccc(O)cc3)cc(=O)c2c1O` [Hispidulin, hispidulin], in data set [1], the “THR agonist classification (positive if >= 10% of activity of 100 nM T3)” value is reported as “THR agonistic negative”.
For `CC(C)(c1ccc(O)cc1)c1ccc(O)cc1` [BPA, bisphenol A], the “THR agonist classification (positive if >= 10% of activity of 100 nM T3)” value in data set [1] is “THR agonistic negative”. In data set [3], this compound displayed a Metabollic rate of 52%.
For `N[C@@H](Cc1cc(I)c(Oc2cc(I)c(O)c(I)c2)c(I)c1)C(=O)O` [T4, Levothyroxine], the “THR agonist classification (positive if >= 10% of activity of 100 nM T3)” value in data set [1] is “THR agonistic positive”.
Regarding `CC12CC1(C)C(=O)N(c1cc(Cl)cc(Cl)c1)C2=O` (centres unmarked) [Procymidone, procymidone], the “THR agonist classification (positive if >= 10% of activity of 100 nM T3)” value in data set [1] is recorded as “THR agonistic negative”. This compound also returned a Metabollic rate in data set [3] of 55%.
Turning to `N[C@@H](Cc1cc(I)c(Oc2ccc(O)c(I)c2)c(I)c1)C(=O)O` [T3, 3,3’,5-triiodo-L-thyronine], in data set [1] (T3 100 nM as positive control), the “Induction compared to the VC value” was at least 4.8 fold. Also, in data set [1], the “THR agonist classification (positive if >= 10% of activity of 100 nM T3)” value was “THR agonistic positive”. Further, the “Metabolic rate (parent decreased by) after the reaction” value in data set [2] came out at 3%.
For the compound `C[C@]12CC[C@@H]3c4ccc(O)cc4CC[C@H]3[C@@H]1CC[C@@H]2O` [E2, 17β-estradiol], the “THR agonist classification (positive if >= 10% of activity of 100 nM T3)” value in data set [1] is “THR agonistic negative”. Further, the Metabollic rate in data set [2] amounted to 44%.
With `O=C(c1ccc(O)cc1O)c1ccc(O)cc1O` [BP-2, 2,2',4,4'-tetrahydroxybenzophenone], in data set [1], the “THR agonist classification (positive if >= 10% of activity of 100 nM T3)” value was “THR agonistic negative”. In data set [2], this compound had a Metabollic rate of 11%.
`O=C(O)CCc1cc(I)c(Oc2ccc(O)cc2)c(I)c1` [DITPA, 3,5-diiodothyropropionic acid]: the “THR agonist classification (positive if >= 10% of activity of 100 nM T3)” value in data set [1] is on record as “THR agonistic positive”. The “THR transcriptional activity after phase I+II reaction” value in data set [1] (setting [4]) is on record as 30.7 ± 1.8%. In addition, the “Metabolic rate (parent decreased by) after the reaction” value in data set [2] worked out at 29%.
As to `Ic1ccc(-c2ccc(I)cc2)cc1` [4,4’-DIDBP, 4,4'-diiodobiphenyl], the “THR agonist classification (positive if >= 10% of activity of 100 nM T3)” value in data set [1] was “THR agonistic negative”. The compound further returned a Metabollic rate in data set [3] of 82%.
Regarding `Cc1cc(OCC(=O)O)cc(C)c1Cc1ccc(O)c(C(C)C)c1` [GC-1, sobetirome], the “THR agonist classification (positive if >= 10% of activity of 100 nM T3)” value in data set [1] was “THR agonistic positive”. Moreover, the “THR transcriptional activity after phase I reaction” value in data set [1] (phase I group, concentration not given, RTA with 100 nM T3 (PC) = 100%) is on record as 166.3 ± 12.0%. Also, the “THR transcriptional activity after phase I+II reaction” value in data set [1] (setting [4]) stood at 160.6 ± 8.6%. In addition, in data set [2], the “Metabolic rate (parent decreased by) after the reaction” value was determined as 15%.
With `CCCCc1oc2ccccc2c1C(=O)c1cc(I)c(OCCN(CC)CC)c(I)c1` [Amiodarone, amiodarone hydrochloride], the “THR agonist classification (positive if >= 10% of activity of 100 nM T3)” value in data set [1] is “THR agonistic negative”.
As to `Brc1ccc(Oc2ccc(Br)cc2Br)cc1` [BDE28, BDE No. 28], the “THR agonist classification (positive if >= 10% of activity of 100 nM T3)” value in data set [1] is on record as “THR agonistic negative”. Moreover, the Metabollic rate in data set [2] is 99%.
Take `Cc1cc(C(C#N)c2ccc(Cl)cc2)c(Cl)cc1NC(=O)c1cc(I)cc(I)c1O` (centres unmarked) [Closantel, closantel]: the “THR agonist classification (positive if >= 10% of activity of 100 nM T3)” value in data set [1] was “THR agonistic negative”. Moreover, the Metabollic rate in data set [3] was 49%.
